Where two headings read alike, the source gives them in different places.
What was measured:
[1] = In-clinic pharmacokinetic study: adverse events, serum osmolality, urine output; assay type: in vivo, human
Experimental: (§1) Subjects received lixivaptan at total daily doses of 100 mg, 200 mg, or 400 mg (administered as 50, 100, and 200 mg Q12H). Subjects were to be enrolled into the study in two cohorts of 30 subjects, but actual cohort numbers were 23 and 34 subjects. Of the 57 subjects enrolled in the study, 27 were female (47.4%) and 30 were male (52.6%). The majority of subjects were White (35/57, 61.4%) and of Hispanic or Latino ethnicity (46/57, 80.7%). The overall mean age of subjects in the study was 33.6 (8.31) years, and the overall mean body mass index for subjects was 26.2 (3.79). There were to be approximately 20 subjects enrolled per dose level. An approximately equal number of males and females were enrolled at each dose level such that neither gender was represented by fewer than 8 subjects. The starting date for each cohort subjects was staggered by 7 days for logistical purposes. Screening evaluations were performed within 28 days prior to Day 1.
The following doses of lixivaptan were administered to subjects in this study: (a) Lixivaptan 100 mg, administered as 50 mg [1×50 mg capsule] every 12 hours×15 doses; (b) lixivaptan 200 mg, administered as 100 mg [2×50 mg capsules] every 12 hours×15 doses; and (c) Lixivaptan 400 mg, administered as 200 mg [4×50 mg capsules] every 12 hours×15 doses.
Prior to the morning doses of lixivaptan on Days 1 and 8, subjects fasted for approximately 10 hours prior to lixivaptan administration and 4 hours after lixivaptan administration. All other doses were administered under fasting conditions, either 2 hours before or 2 hours after meals. The study medication was administered with 240 milliliters (mL) room temperature water. Subjects were not to receive any oral fluids, other than those used to administer the dose, for 1 hour before and 1 hour after dose administration. Subjects remained sitting or semi-supine, except to void, for 6 hours following the first two doses. While in the clinic, the subjects refrained from strenuous physical activity.

[2] = In-clinic pharmacokinetic study: plasma pharmacokinetics and dose proportionality; assay type: in vivo, human; settings: 100 mg to 400 mg administered as 2 divided doses
Experimental: The primary objective of this study was to assess the pharmacokinetics and dose proportionality of lixivaptan over the dose range targeted for clinical use (e.g., 100 to 400 mg daily) using unit doses of 50 mg and multiples thereof given twice daily for 7.5 days.
as §1, with “Day 1. […]” for “Day 1.”

V2 receptor = V2 receptor (Homo sapiens, UniProt P30518); assay: Single 100 mg oral dose study in ESRD and normal renal function subjects: pharmacodynamics (urine osmolality, vasopressin, urine output); assay type: in vivo; parameters: Lixivaptan antagonizes the effects of vasopressin that are mediated by the V2 receptor; from tissue; host or cells: living human subjects (in vivo clinical studies); the receptor is the subjects' own and no tissue was isolated
Sequence of V2 receptor (P30518 whole entry): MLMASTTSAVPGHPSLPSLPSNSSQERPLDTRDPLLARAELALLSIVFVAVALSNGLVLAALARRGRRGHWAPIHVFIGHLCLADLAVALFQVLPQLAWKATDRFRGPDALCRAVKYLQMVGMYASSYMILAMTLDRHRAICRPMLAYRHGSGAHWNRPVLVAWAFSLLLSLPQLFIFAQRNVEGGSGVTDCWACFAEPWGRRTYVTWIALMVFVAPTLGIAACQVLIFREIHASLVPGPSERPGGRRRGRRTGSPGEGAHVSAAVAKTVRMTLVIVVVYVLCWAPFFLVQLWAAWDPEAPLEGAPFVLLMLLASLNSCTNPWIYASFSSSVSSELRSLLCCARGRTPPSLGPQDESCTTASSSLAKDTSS

[3] = Single 100 mg oral dose study in ESRD and normal renal function subjects: pharmacokinetics and tolerability; assay type: in vivo, human; settings: for AUC(0-inf) / AUC(0-t) / Cmax / Vd/F / half-life: po, 100 mg; for Vd/F: read-out: VZ/F Mean; for half-life: read-out: t1/2 Median (converted)
Experimental: A clinical study was undertaken to determine the pharmacokinetics (PK) of lixivaptan in renally impaired subjects. In this study, the PK of lixivaptan following a single 100 mg oral dose of lixivaptan was evaluated in subjects with end-stage renal disease (ESRD) and control subjects with normal renal function. Pharmacodynamic (PD) evaluations, including vasopressin concentration, serum sodium concentration, urine volume, and urine osmolality were assessed. Overall total lixivaptan exposure was, on average, 32 and 31% lower in ESRD subjects compared to subjects with normal renal function, as assessed by AUC0-∞ and AUC0-t, respectively. Similarly, peak total lixivaptan concentrations were, on average, 31% lower in subjects with ESRD.

[4] = Clinical observation of ALT elevations, 400 mg BID for 7 days; assay type: in vivo, human; settings: 67 individuals
[5] = human, in vivo, single 100 mg oral dose, ESRD
[6] = human, in vivo, single 100 mg oral dose, Normal
[7] = single 100 mg oral dose, Normal

In the case of `Cc1ccc(F)cc1C(=O)Nc1ccc(C(=O)N2Cc3cccn3Cc3ccccc32)c(Cl)c1` [Lixivaptan, 5-fluoro-2-methyl-N-[4-(5H-pyrrolo[2,1-C] [1,4]benzodiazepin-10(11H)-ylcarbonyl)-3-chlorophenyl]benzamide], the “headache considered possibly or probably related to study drug” value ([1]; 100 mg group) is reported as 2 subject, the “headache considered possibly or probably related to study drug” value ([1]; 200 mg group) is reported as 1 subject and the “asthenia considered possibly or probably related to study drug” value ([1]; 400 mg group) is reported as 1 subject. For the same compound, the “headache considered possibly or probably related to study drug” value ([1]; 400 mg group) was 1 subject, the “vomiting considered possibly or probably related to study drug” value ([1]; 400 mg group) was 1 subject and the urine output ([1]; Days 1-8) was “increased”. For the same compound, the serum osmolality ([1]; during the study, dose related) was “mildly increased”, the tolerability ([1]; healthy subjects, 50-200 mg Q12H for 7.5 days) was “well tolerated” and the “treatment-emergent AE chest discomfort” value ([1]; of the 57 enrolled subjects) was 2 subjects. The “treatment-emergent AE constipation” value ([1]; of the 57 enrolled subjects) was 3 subjects, the “treatment-emergent AE headache” value ([1]; of the 57 enrolled subjects) was 7 subjects and the “dose proportionality of pharmacokinetic parameters (Cmax, AUC(0-12))” value [2] was “proportional kinetics”. For the same compound, the “Urine osmolality Change from baseline Mean” value (“Urine osmolality Change” below) (V2 receptor; 0 to 2 hours postdose, ESRD) was −109.0 mosmol/kg, the “Urine osmolality Observed Mean” value (V2 receptor; 0 to 2 hours postdose, ESRD, single 100 mg oral dose) was 216.5 mosmol/kg and the “Urine osmolality Change” value (V2 receptor; 0 to 2 hours postdose, Normal) was −398.5 mosmol/kg. For the same compound, the “Urine osmolality Observed Mean” value (V2 receptor; 0 to 2 hours postdose, Normal, single 100 mg oral dose) was 132.6 mosmol/kg, the “Urine osmolality Change” value (V2 receptor; 2 to 4 hours postdose, ESRD) was −108.7 mosmol/kg and the “Urine osmolality Observed Mean” value (V2 receptor; 2 to 4 hours postdose, ESRD) was 202.4 mosmol/kg. The “Urine osmolality Change” value (V2 receptor; 2 to 4 hours postdose, Normal) was −412.6 mosmol/kg, the “Urine osmolality Observed Mean” value (V2 receptor; 2 to 4 hours postdose, Normal) was 109.9 mosmol/kg and the “Urine osmolality Change” value (V2 receptor; 4 to 8 hours postdose, ESRD) was −118.3 mosmol/kg. The “Urine osmolality Observed Mean” value (V2 receptor; 4 to 8 hours postdose, ESRD) was 195.1 mosmol/kg, the “Urine osmolality Change” value (V2 receptor; 4 to 8 hours postdose, Normal) was −258.3 mosmol/kg and the “Urine osmolality Observed Mean” value (V2 receptor; 4 to 8 hours postdose, Normal) was 272.8 mosmol/kg. The “effect on change from baseline in urine osmolality” value (V2 receptor; ESRD group) was “markedly reduced”, the “Urine osmolality Observed Mean” value (V2 receptor; Predose, ESRD) was 311.1 mosmol/kg and the “Urine osmolality Observed Mean” value (V2 receptor; Predose, Normal) was 514.7 mosmol/kg. For the same compound, the vasopressin levels (V2 receptor; both renal function groups) was “elevations of vasopressin levels”, the urine output (V2 receptor; normal group) was “increased urine output” and the “tolerability of single doses” value ([3]; both groups (normal, ESRD)) was “well tolerated”. For the same compound, the AUC(0-inf) [3, 5] was 856 ng·h/mL, the AUC(0-t) [3, 5] was 809 ng·h/mL and the Cmax [3, 5] was 238 ng/mL. The Vd/F [3, 5] was 2740 L, the half-life [3, 5] was 13.3 h and the AUC(0-t) [3, 6] was 1200 ng·h/mL. For the same compound, the Cmax [3, 6] was 383 ng/mL, the AUC(0-inf) ([3]; human, in vivo, single 100 mg oral dose, Normal renal function) was 1290 ng·h/mL and the Vd/F [3, 6] was 1750 L. For the same compound, the half-life [3, 6] was 12 h, the Tmax ([3]; human, in vivo, single 100 mg oral dose, Normal, read-out: tmax Median) was 1 h and the “peak total lixivaptan concentrations lower in subjects with ESRD” value ([3]; single 100 mg oral dose) was 31%. The “total lixivaptan exposure (AUC0-t) lower in ESRD subjects compared to normal renal function” value ([3]; single 100 mg oral dose) was 31%, the “total lixivaptan exposure (AUC0-∞) lower in ESRD subjects compared to normal renal function” value ([3]; single 100 mg oral dose) was 32% and the “CL/F Mean” value ([3]; single 100 mg oral dose, ESRD) was 137 L/h. For the same compound, the “Lambdaz Median” value ([3]; single 100 mg oral dose, ESRD) was 0.05752 h⁻¹, the “CL/F Mean” value [3, 7] was 94.2 L/h and the “Lambdaz Median” value [3, 7] was 0.06035 h⁻¹. For the same compound, the “ALT elevations in treated individuals” value [4] was “no ALT elevations”.

Source: patent US11241441B2, “Formulations of lixivaptan for the treatment of polycystic disease” (PALLADIO BIOSCIENCES, INC., priority 2017, dated 2022)
